Laboratory results taken from patent US8987500B2, “4-biphenyl-substituted pyrazolidin-3,5-dione derivatives” (Bayer CropScience AG, priority 2003, dated 2015).
One block for each compound: values may come before it.

Columns and labels:
[1] = system: Sphaerotheca fuliginea; assay: Sphaerotheca test (cucumber)/protective, Example H; assay type: in vivo; settings: Sphaerotheca fuliginea on cucumber, protective, application rate 750 g/ha, evaluation 7 days after inoculation
Procedure: Sphaerotheca Test (Cucumber)/Protective [table] To produce a suitable preparation of active compound, 1 part by weight of active compound is mixed with the stated amounts of solvent and emulsifier, and the concentrate is diluted with water to the desired concentration. To test for protective activity, young cucumber plants are sprayed with the preparation of active compound at the stated application rate. 1 day after the treatment, the plants are inoculated with a spore suspension of Sphaerotheca fuliginea. The plants are then placed in a greenhouse at 70% relative atmospheric humidity and a temperature of 23° C. Evaluation is carried out 7 days after the inoculation. 0% means an efficacy which corresponds to that of the control, whereas an efficacy of 100% means that no infection is observed.

[2] = system: larvae of the mustard beetle (Phaedon cochleariae); assay: Phaedon test (spray treatment), Example E; assay type: in vivo; settings: Table E
Procedure: (§1) Phaedon Test (Spray Treatment) [table] To produce a suitable preparation of active compound, 1 part by weight of active compound is mixed with the stated amounts of solvents and emulsifier, and the concentrate is diluted with emulsifier-containing water to the desired concentration. Discs of Chinese cabbage (Brassica pekinensis) are sprayed with a preparation of active compound of the desired concentration and, after they have dried, populated with larvae of the mustard beetle (Phaedon cochleariae). After the desired period of time, the activity in % is determined 100% means that all beetle larvae have been killed; 0% means that none of the beetle larvae have been killed.

[3] = system: greenhouse red spider mite (Tetranychus urticae); assay: Tetranychus test (OP-resistant/spray treatment), Example G; assay type: in vivo; settings: Tetranychus urticae (OP-resistant), bean leaf discs, spray treatment, 500 g/ha
Procedure: Tetranychus Test (OP-Resistant/Spray Treatment)
(§2) To produce a suitable preparation of active compound, 1 part by weight of active compound is mixed with the stated amounts of solvents and emulsifier, and the concentrate is diluted with emulsifier-containing water to the desired concentration.
Discs of bean leaves (Phaseolus vulgaris) which are infested by all stages of the greenhouse red spider mite (Tetranychus urticae) are sprayed with a preparation of active compound of the desired concentration.
After the desired period of time, the activity in % is determined 100% means that all spider mites have been killed; 0% means that none of the spider mites have been killed.

[4] = system: caterpillars of the army worm (Spodoptera frugiperda); assay: Spodoptera frugiperda test (spray treatment), Example B; assay type: in vivo; settings: Table B, 500 g/ha active compound
Procedure: as §1, with “Spodoptera frugiperda” for “Phaedon”, “maize leaves (Zea mays)” for “Chinese cabbage (Brassica pekinensis)”, “caterpillars” for “larvae”, “army worm (Spodoptera frugiperda).” for “mustard beetle (Phaedon cochleariae).”, “caterpillars” for “beetle larvae”

[5] = system: caterpillars of the army worm (Spodoptera frugiperda); assay: Spodoptera frugiperda test (spray treatment), Example F; assay type: in vivo; settings: maize leaf discs, 500 g/ha
Procedure: as §1, with “Spodoptera frugiperda” for “Phaedon”, “maize leaves (Zea mays)” for “Chinese cabbage (Brassica pekinensis)”, “caterpillars” for “larvae”, “army worm (Spodoptera frugiperda).” for “mustard beetle (Phaedon cochleariae).”, “caterpillars” for “beetle larvae”

[6] = system: green peach aphid (Myzus persicae); assay: Myzus test (spray treatment), Example D; assay type: in vivo; settings: Table D
Procedure: Myzus Test (Spray Treatment)
as §2
Discs of Chinese cabbage (Brassica pekinensi), which are infested by all stages of the green peach aphid (Myzus persicae) are sprayed with a preparation of active compound of the desired concentration.
After the desired period of time, the activity in % is determined 100% means that all aphids have been killed; 0% means that none of the aphids have been killed.

[7] = system: monocotyledonous and dicotyledonous weed and crop plants; assay: Herbicidal post-emergence action, Example J; assay type: in vivo; settings: Greenhouse, 320 g a.i./ha, about 3 weeks
Procedure: Herbicidal Post-Emergence Action Seeds of monocotyledonous and dicotyledonous weed and crop plants are placed into sandy loam in woodfibre pots, covered with soil and cultivated in a greenhouse under good growth conditions. 2-3 weeks after sowing, the test plants are treated at the one-leaf stage. The test compounds formulated as wettable powders (WP) are, in various dosages with a water application rate of 600 l/ha (converted), with 0.2% of wetting agent added, sprayed onto the green parts of the plants. After the test plants have been kept in the greenhouse under optimum growth conditions for about 3 weeks, the effect of the preparations is rated visually in comparison to untreated controls (herbicidal effect in percent (%): 100% effect=plants have died, 0% effect=like control plants).

[8] = system: Meloidogyne incognita; assay: Meloidogyne test, Example C; assay type: in vivo; settings: Table C, 20 ppm active compound, nematicidal effect by formation of galls
Procedure: Meloidogyne Test [table] To produce a suitable preparation of active compound, 1 part by weight of active compound is mixed with the stated amounts of solvent, and the concentrate is diluted with water to the desired concentration. Containers are filled with sand, solution of active compound, Meloidogyne incognita egg/larvae suspension and lettuce seeds. The lettuce seeds germinate and the plants develop. On the roots, galls are formed. After the desired period of time, the nematicidal effect is determined in % by the formation of galls. 100% means that no galls have been found; 0% means that the number of galls on the treated plants corresponds to that of the untreated control.

[9] = system: larvae of the mustard beetle (Phaedon cochleariae); assay: Phaedon test (spray treatment), Example A; assay type: in vivo; settings: Table A, 500 g/ha active compound
Procedure: as §1

SMILES: Cc1ccc(-c2cccc(Cl)c2)cc1-c1c(OC(=O)C(C)(C)C)n2n(c1=O)CCCC2 [Ex. I-1-b-3]
Efficacy in % [1]: 90%

SMILES: Cc1ccc(-c2ccc(Cl)cc2)cc1-c1c(OC(=O)C(C)(C)C)n2n(c1=O)CCCC2 [Ex. I-1-b-4]
Kill rate in % after 7d ([2]; 500 g/ha active compound): 100%
Kill rate in % after 5d [3]: 100%
Kill rate in % after 7d [4]: 100%

SMILES: Cc1ccc(-c2ccc(Cl)cc2Cl)cc1-c1c(OC(=O)C(C)(C)C)n2n(c1=O)CCCC2 [Ex. I-1-b-11]
Kill rate in % after 7d [5]: 100%
Kill rate in % after 5d ([6]; 500 g/ha active compound): 100%

SMILES: Cc1ccc(-c2ccc(F)c(Cl)c2)cc1-c1c(OC(=O)C(C)(C)C)n2n(c1=O)CCCC2 [Ex. I-1-b-17]
Kill rate in % after 7d [5]: 100%
Kill rate in % after 5d ([6]; 500 g/ha active compound): 90%

SMILES: Cc1ccc(-c2ccc(C(F)(F)F)cc2)cc1-c1c(OC(=O)C(C)(C)C)n2n(c1=O)CCCC2 [Ex. I-1-b-20]
herbicidal effect in percent, Avena fatua [7]: 80%
herbicidal effect in percent, Lolium [7]: 80%
herbicidal effect in percent, Setaria [7]: 90%

SMILES: CCOC(=O)Oc1c(-c2cc(-c3ccc(Cl)cc3)ccc2C)c(=O)n2n1CCCC2 [Ex. I-1-c-4]
Kill rate in % after 7d [4]: 100%

SMILES: CCOC(=O)Oc1c(-c2cc(-c3ccc(F)cc3F)ccc2C)c(=O)n2n1CCCC2 [Ex. I-1-c-15]
Kill rate in % after 7d ([2]; 500 g/ha active compound): 100%
Kill rate in % after 5d [3]: 100%
Kill rate in % after 5d ([6]; 500 g/ha active compound): 100%

SMILES: CCOC(=O)Oc1c(-c2cc(-c3ccc(C(F)(F)F)cc3)ccc2C)c(=O)n2n1CCCC2 [Ex. I-1-c-19]
herbicidal effect in percent, Avena fatua [7]: 70%
herbicidal effect in percent, Lolium [7]: 80%
herbicidal effect in percent, Setaria [7]: 100%

SMILES: Cc1ccc(-c2ccc(F)cc2F)cc1-c1c(OC(=O)C(C)(C)C)n2n(c1=O)CCOCC2 [Ex. I-2-b-15]
Kill rate in % after 7d [5]: 100%
Kill rate in % after 5d ([6]; 500 g/ha active compound): 100%

SMILES: Cc1ccc(-c2ccc(Cl)cc2)cc1-c1c(OC(=O)C(C)C)n2n(c1=O)CCOCC2 [Ex. I-2-b-31]
Kill rate in % after 5d ([6]; 500 g/ha active compound): 100%

SMILES: CCOC(=O)Oc1c(-c2cc(-c3ccc(F)cc3)ccc2C)c(=O)n2n1CCOCC2 [Ex. I-2-c-6]
Kill rate in % after 5d ([6]; 100 g/ha active compound): 100%
Effect in % after 14d [8]: 90%

SMILES: CCOC(=O)Oc1c(-c2cc(-c3cc(F)ccc3F)ccc2C)c(=O)n2n1CCOCC2 [Ex. I-2-c-16]
Kill rate in % after 5d ([6]; 500 g/ha active compound): 100%

melting point: 172 °C
SMILES: Cc1ccc(-c2ccc(F)cc2)cc1-c1c(O)n2n(c1=O)CCCC2 [Example I-1-a-1]
Effect in % after 14d [8]: 80%

SMILES: Cc1ccc(-c2ccc(Cl)cc2)cc1-c1c(O)n2n(c1=O)CCCC2 [Example I-1-a-4]
Kill rate in % after 7d [9]: 100%

SMILES: Cc1ccc(-c2cc(Cl)ccc2Cl)cc1-c1c(O)n2n(c1=O)CCCC2 [Example I-1-a-12]
herbicidal effect in percent, Avena fatua [7]: 80%
herbicidal effect in percent, Lolium [7]: 70%
herbicidal effect in percent, Setaria [7]: 70%

SMILES: COc1cccc(-c2ccc(C)c(-c3c(O)n4n(c3=O)CCCC4)c2)c1 [Example I-1-a-22]
herbicidal effect in percent, Amaranthus ([7]; Amaranthus): 70%
herbicidal effect in percent, Lolium [7]: 100%
herbicidal effect in percent, Setaria [7]: 90%

SMILES: Cc1ccc(-c2ccc(F)cc2)cc1-c1c(OC(=O)C(C)(C)C)n2n(c1=O)CCCC2 [Example I-1-b-1]
Kill rate in % after 7d ([2]; 500 g/ha active compound): 100%
Effect in % after 14d [8]: 90%
Efficacy in % [1]: 94%

SMILES: CCOC(=O)Oc1c(-c2cc(-c3ccc(F)cc3)ccc2C)c(=O)n2n1CCCC2 [Example I-1-c-1]
Kill rate in % after 7d ([2]; 100 g/ha active compound): 100%
herbicidal effect in percent, Avena fatua [7]: 90%
herbicidal effect in percent, Lolium [7]: 90%
herbicidal effect in percent, Setaria [7]: 80%
Kill rate in % after 5d ([6]; 100 g/ha active compound): 100%
Efficacy in % [1]: 80%

SMILES: Cc1cc(C)c(-c2c(O)n3n(c2=O)CCOCC3)c(C)c1-c1ccc(F)cc1 [Example I-2-a-32]
Kill rate in % after 5d ([6]; 500 g/ha active compound): 90%
